Measured values published in the NIST ThermoML archive (doi:10.1021/je8009418).

Conditions: Liquid; for speed of sound: Pulse-echo method; for mass density: Vibrating tube method

CCC(C)(C)O [2-methylbutan-2-ol]
Conditions | mass density [kg/m3] | speed of sound [m/s]
292.86 K, 15200 kPa | – | 1290.8
292.86 K, 30390 kPa | – | 1369.7
292.86 K, 45590 kPa | – | 1440.9
292.86 K, 60790 kPa | – | 1506
292.86 K, 75990 kPa | – | 1566.1
292.86 K, 91180 kPa | – | 1623.1
292.86 K, 101320 kPa | – | 1658.5
292.9 K, 100 kPa | – | 1196.7
293.15 K, 101.33 kPa | 808.891 | –
298.15 K, 101.33 kPa | 804.3 | 1177.8
298.15 K, 15200 kPa | – | 1274.2
298.15 K, 30390 kPa | – | 1354.4
298.15 K, 45590 kPa | – | 1426.3
298.15 K, 60790 kPa | – | 1491.5
298.15 K, 75990 kPa | – | 1551.9
298.15 K, 91180 kPa | – | 1608.7
298.15 K, 101320 kPa | – | 1644.4
298.17 K, 100 kPa | – | 1177.8
303.13 K, 30390 kPa | – | 1339.7
303.13 K, 45590 kPa | – | 1412.3
303.13 K, 91180 kPa | – | 1595.6
303.13 K, 101320 kPa | – | 1631.4
303.14 K, 15200 kPa | – | 1258.5
303.14 K, 60790 kPa | – | 1478.1
303.14 K, 75990 kPa | – | 1538.6
303.15 K, 100 kPa | – | 1159.8
303.16 K, 101.33 kPa | 799.66 | –
308.12 K, 100 kPa | – | 1141.9
308.12 K, 15200 kPa | – | 1242.6
308.12 K, 30390 kPa | – | 1324.9
308.12 K, 45590 kPa | – | 1398
308.12 K, 60790 kPa | – | 1464.7
308.12 K, 75990 kPa | – | 1525.6
308.12 K, 91180 kPa | – | 1582.6
308.12 K, 101320 kPa | – | 1619
308.16 K, 101.33 kPa | 794.954 | –
313.1 K, 100 kPa | – | 1124
313.1 K, 45590 kPa | – | 1384.1
313.1 K, 60790 kPa | – | 1451.2
313.1 K, 75990 kPa | – | 1512.8
313.1 K, 91180 kPa | – | 1569.9
313.11 K, 15200 kPa | – | 1226.6
313.11 K, 30390 kPa | – | 1310.1
313.11 K, 101320 kPa | – | 1606.2
313.15 K, 101.33 kPa | 790.176 | –
318.15 K, 101.33 kPa | 785.312 | –
318.18 K, 15200 kPa | – | 1210.4
318.18 K, 60790 kPa | – | 1437.9
318.18 K, 75990 kPa | – | 1499.8
318.18 K, 101320 kPa | – | 1593.9
318.19 K, 30390 kPa | – | 1295.2
318.19 K, 45590 kPa | – | 1370.1
318.19 K, 91180 kPa | – | 1557.2
318.29 K, 100 kPa | – | 1105.3

OC1CCCC1 [cyclopentanol]
Conditions | mass density [kg/m3] | speed of sound [m/s]
292.85 K, 15200 kPa | – | 1519.5
292.85 K, 30390 kPa | – | 1576.3
292.85 K, 45590 kPa | – | 1629.1
292.85 K, 60790 kPa | – | 1677.8
292.85 K, 75990 kPa | – | 1723.9
292.85 K, 91180 kPa | – | 1767.2
292.85 K, 101320 kPa | – | 1795
292.86 K, 100 kPa | – | 1454.4
293.15 K, 101.33 kPa | 946.792 | –
298.14 K, 15200 kPa | – | 1500.4
298.14 K, 30390 kPa | – | 1557.8
298.14 K, 45590 kPa | – | 1611.5
298.14 K, 60790 kPa | – | 1661
298.14 K, 75990 kPa | – | 1707.2
298.14 K, 91180 kPa | – | 1751.2
298.14 K, 101320 kPa | – | 1779.3
298.15 K, 101.33 kPa | 942.856 | 1435.1
298.17 K, 100 kPa | – | 1435
303.12 K, 15200 kPa | – | 1482.2
303.12 K, 30390 kPa | – | 1540.4
303.12 K, 45590 kPa | – | 1595.1
303.12 K, 60790 kPa | – | 1645.6
303.12 K, 75990 kPa | – | 1692.6
303.12 K, 91180 kPa | – | 1737.2
303.12 K, 101320 kPa | – | 1765.5
303.15 K, 100 kPa | – | 1416.9
303.16 K, 101.33 kPa | 938.874 | –
308.11 K, 15200 kPa | – | 1464.8
308.11 K, 30390 kPa | – | 1524.5
308.11 K, 45590 kPa | – | 1579.4
308.11 K, 60790 kPa | – | 1630.6
308.11 K, 75990 kPa | – | 1678
308.11 K, 101320 kPa | – | 1751.6
308.12 K, 91180 kPa | – | 1723
308.13 K, 100 kPa | – | 1398.7
308.15 K, 101.33 kPa | 934.843 | –
313.09 K, 15200 kPa | – | 1447.6
313.09 K, 30390 kPa | – | 1508.3
313.09 K, 45590 kPa | – | 1564
313.09 K, 60790 kPa | – | 1616.1
313.09 K, 75990 kPa | – | 1664.1
313.09 K, 91180 kPa | – | 1709.5
313.09 K, 101320 kPa | – | 1738.6
313.12 K, 100 kPa | – | 1380.6
313.15 K, 101.33 kPa | 930.754 | –
318.15 K, 101.33 kPa | 926.613 | –
318.19 K, 15200 kPa | – | 1430.8
318.19 K, 45590 kPa | – | 1548.6
318.19 K, 60790 kPa | – | 1601.4
318.19 K, 75990 kPa | – | 1650.3
318.19 K, 101320 kPa | – | 1725.3
318.2 K, 30390 kPa | – | 1492.4
318.2 K, 91180 kPa | – | 1695.8
318.29 K, 100 kPa | – | 1361.8

CCCCCO [pentan-1-ol]
Conditions | mass density [kg/m3] | speed of sound [m/s]
292.81 K, 100 kPa | – | 1293.9
292.88 K, 76010 kPa | – | 1611.2
292.88 K, 91210 kPa | – | 1660
292.88 K, 101330 kPa | – | 1691.4
292.91 K, 45590 kPa | – | 1501.6
292.91 K, 60810 kPa | – | 1558.3
292.95 K, 15200 kPa | – | 1371.5
292.96 K, 30400 kPa | – | 1439.7
293.15 K, 101.33 kPa | 814.5 | –
297.93 K, 30400 kPa | – | 1424.8
297.93 K, 45600 kPa | – | 1487.1
297.93 K, 60800 kPa | – | 1544.3
297.93 K, 75990 kPa | – | 1597.6
297.93 K, 91190 kPa | – | 1647.3
297.93 K, 101340 kPa | – | 1678.7
297.94 K, 15200 kPa | – | 1355.5
298.15 K, 101.33 kPa | 810.84 | 1275.2
298.18 K, 100 kPa | – | 1275.1
303.05 K, 45600 kPa | – | 1472.8
303.06 K, 15200 kPa | – | 1339.3
303.06 K, 30410 kPa | – | 1409.7
303.06 K, 91180 kPa | – | 1634.6
303.06 K, 101330 kPa | – | 1666.3
303.1 K, 60790 kPa | – | 1530.6
303.1 K, 76000 kPa | – | 1584.1
303.15 K, 100 kPa | – | 1258
303.15 K, 101.33 kPa | 807.155 | –
308.04 K, 45600 kPa | – | 1459
308.05 K, 76000 kPa | – | 1571.6
308.06 K, 60800 kPa | – | 1517.5
308.06 K, 91210 kPa | – | 1622.5
308.06 K, 101330 kPa | – | 1654.2
308.08 K, 15200 kPa | – | 1323.5
308.08 K, 30400 kPa | – | 1394.8
308.13 K, 100 kPa | – | 1240.9
308.15 K, 101.33 kPa | 803.442 | –
313.02 K, 101340 kPa | – | 1642.9
313.03 K, 30400 kPa | – | 1380.7
313.03 K, 60790 kPa | – | 1504.8
313.03 K, 75990 kPa | – | 1559.2
313.03 K, 91190 kPa | – | 1610.7
313.04 K, 15210 kPa | – | 1308.5
313.05 K, 45600 kPa | – | 1445.5
313.11 K, 100 kPa | – | 1224.1
313.15 K, 101.33 kPa | 799.705 | –
318.15 K, 101.33 kPa | 795.912 | –
318.49 K, 76000 kPa | – | 1546.4
318.49 K, 91200 kPa | – | 1598.1
318.5 K, 60800 kPa | – | 1491.2
318.51 K, 45590 kPa | – | 1431.3
318.51 K, 101330 kPa | – | 1630.8
318.52 K, 15200 kPa | – | 1292
318.52 K, 30400 kPa | – | 1365.4
318.68 K, 100 kPa | – | 1205.5
